US5244907A, “Carbocyclic carboxylic acid amides and esters of azabicyclic compounds as gastric prokinetic, antiemetic, anxiolytic and antiarrhythmic agents” (A. H. Robins Company, Incorporated, priority 1992, dated 1993)

How the values were obtained:
[1] = tested on: von Bezold-Jarisch reflex evoked by 5-HT (serotonin); assay: Antagonism of the von Bezold-Jarisch reflex evoked by 5-HT in anaesthetized rats; type: in vivo; conditions: Rattus norvegicus; 0.0316 mg/kg IV in anesthetized rats; read-out: Antiserotonin: von Bezold-Jarisch reflex % change in serotonin-induced bradycardia
Protocol: F. Antagonism of the von Bezold-Jarisch Reflex
The compounds are evaluated for antagonism of the von Bezold-Jarisch reflex evoked by 5-HT (serotonin) in anaesthetized rats according to the method described in European Patent Application 200-444 (Beecham Group).
Male rats (250-350 g) are anaesthetized with urethane (1.25 g/kg intraperitoneally), and blood pressure and heart rate are recorded as described by Fozard J. R. et al., J. Cardiovasc. Pharmacol. 2, 229-245 (1980). A submaximal dose of 5-HT (usually […]) is given repeatedly by the intravenous route and changes in heart rate quantified. Compounds are given intravenously and the inhibition of the 5-HT evoked response is measured. In addition, the concentration required to reduce the 5-HT evoked response to 50% of the control response (ED50) can be determined.
^3 Von BezoldJarisch reflex % change in serotonininduced bradycardia
at 0.0316 mg/kg IV in anesthesized rats.

cisplatin-induced emesis = assay: Cisplatin-induced emesis in dogs; type: in vivo; conditions: Canis lupus familiaris; 1 mg/kg IV; cisplatin 3.0 mg/kg IV; 5 hours; read-out: Antiemetic: % change in emetic episodes in dogs induced by cisplatin
Protocol: A. Effect of Invention Compounds on Cisplatin-induced Emesis in Dogs
The procedure used to test compounds of the present invention for antiemetic properties is a modification of the method of Gylys et al., Res. Commun. Chem. Pathol. Pharm., 23, 61(1979).
Adult, mongrel unfasted dogs of both sexes are randomly assigned into treatment groups, with each treatment group consisting of four dogs. On the dosing day all dogs are given cisplatin, 3.0 mg/kg, intravenously. Sixty minutes later, the dogs in the control treatment group are given deionized water, 0.1 mL/kg intravenously and dogs receiving test compounds are given the test compound in solution (1 mg/kg, IV). All doses are administered as a solution by means of a syringe and needle, and each dog's emetic episodes are recorded for 5 hours after the administration of cisplatin.
^2 % change in emetic episodes in dogs at 1 mg/kg IV induced by […]

[2] = tested on: gastric emptying of test meal; assay: Gastric emptying of a test meal in fasted rats; type: in vivo; conditions: Rattus norvegicus, 1 h; for change in vivo at 10 mg/kg: 10 mg/kg IP; for change in vivo at 9 mg/kg: 9 mg/kg IP (printed 09)
Protocol: B. Effect of Invention Compounds on Gastric Emptying of a Test Meal in Fasted Rats
The procedure used to test compounds of the present invention for gastric motility enhancing activity is that of Droppleman et al., J. Pharmacol. Methods, 4,227(1980).
Each animal is dosed intraperitoneally (9 or 10 mg/kg) with a test compound or control. After 30 minutes each animal is given 3 mL of a methylcellulose-based test meal formulation. Sixty minutes after administration of the test meal, each animal is sacrificed by cervical dislocation, and the stomach is removed and weighed. The stomach is cut open, rinsed and dried, and reweighed. This difference between the full and empty weights (amount of meal remaining in stomach) is subtracted from the weight of the original test meal to determine the meal amount emptied from the stomach during the test period.
^1 % change in gastric emptying of test meal in rats (dose, mg/kg IP)

canine Purkinje fibers = assay: Cellular electrophysiologic effects in canine Purkinje fibers in vitro; type: cell-based, dog (canine); conditions: Canis lupus familiaris, 20 min, 10^-4 M, after 20 min exposure, read-out: increase in action potential duration at 90% repolarization (APD90)
Protocol: G. Measurement of Cellular Electrophysiologic Effects in Canine Purkinje Fibers in Vitro
Dogs (12-18 kg) were anesthetized with sodium pentobarbital (30 mg/kg IV). The heart of each dog was rapidly removed through a right lateral thoracotomy and placed in a chilled, oxygenated Tyrode's solution. Purkinje fibers from the right and left ventricles were excised and mounted in a Lucite chamber. The tissue was superfused at a rate of 10-15 mL/min with Tyrode's solution. The temperature of the superfused Tyrode's was maintained at 37° C. and gassed with 95% oxygen-5% carbon dioxide mixture.
The Purkinje fibers were stimulated (paced at cycle length of 400 to 1000 msec) with a silver bipolar wire electrode placed on the surface of the tissue. Transmembrane action potentials were recorded with a glass capillary microelectrodes filled with 3M KCl. […] The measurements derived from the action potential were Vmax (upstroke velocity), APD50 (action potential duration at 50% repolarization), and APD90 (action potential duration at 90% repolarization) as previously described (Bigger and Mandel, 1970; Wu and Hoffman, 1987). […] Measurements of the action potential parameters were recorded after 20 min of test drug exposure. […] Changes in the action potential measurements produced by the test compound were analyzed for statistical significance using a paired-t test. […]

[3] = tested on: exploratory light/dark behavior; assay: Anxiolytic test, exploratory light/dark (mice); type: in vivo; conditions: 10 mg/kg IP, significant increase as compared with the controls (30%)
Protocol: Exploratory Light/Dark (mice)
This method has been described by Young and Johnson (1988) and is a modification of the procedure described by Costall and Naylor (1988). A two compartment light-dark activity monitoring device (Digiscan Model RXYZCM16, Omnitech Electronics Inc., Columbus, Ohio) is used. A 90W light source located 30 cm above the box provides light to the lit portion of the apparatus. Behavioral testing is conducted in a sound-attenuated, darkened room illuminated with red light (25W red bulb) only.
Each animal (mouse) receives a dose or doses of either the test, reference, or control article. The animal is placed at the center of the illuminated area and the behavioral activity tallied over a 5 minute period by use of the Digiscan analyzer. Behavioral variables recorded included: the time spent in the lit and dark areas, the number of rearings in the lit and dark areas, the number of locomotor activity counts in the lit and dark areas, the number of transitions between the lit and dark and lit areas, the latency to make the first transition from the lit area to the dark area, rearing time in the lit and dark areas, locomotor time in the lit and dark areas, and resting time in the lit and dark areas. Appropriate statistical analyses for each measure are performed. […]

| SMILES | change in vivo at 0.0316 mg/kg [1] [%] | change in vivo at 1 mg/kg (cisplatin-induced emesis) [%] | change in vivo at 10 mg/kg [2] [%] | activation at 100 µM (canine Purkinje fibers) [%] | time spent in the lit area [3] [%] | change in vivo at 9 mg/kg [2] [%] |
| --- | --- | --- | --- | --- | --- | --- |
| COCCOc1cc(N)c(Cl)cc1C(=O)NCC12CCCN(CCC1)C2 [Example 6, 4-Amino-N-(1-azabicyclo[3.3.1]non-5-ylmethyl)-5-chloro-2-(2-methoxyethoxy)benzamide] | -30 |  |  |  |  |  |
| O=C(OCC12CCCN(CC1)C2)c1c[nH]c2ccccc12 (stereo not drawn) [Example 11, 1H-Indole-3-carboxylic acid 1-azabicyclo[3.2.1]oct-5-ylmethyl ester] | -86 | -85 |  |  |  |  |
| COc1cc(N)c(Cl)cc1C(=O)NCC12CCCN(CC1)C2 (stereo not drawn) [Example 1, 4-Amino-N-(1-azabicyclo[3.2.1]oct-5ylmethyl)-5-chloro-2-methoxybenzamide] |  | -76 | 47 |  |  |  |
| COCCOc1cc(N)c(Cl)cc1C(=O)NCC12CCCN(CC1)C2 (stereo not drawn) [Example 3] | -74 | -51 | 31 |  |  |  |
| CS(=O)(=O)Nc1ccc(C(=O)NCC23CCCN(CCC2)C3)cc1 [Example 9, N-(1-Azabicyclo[3.3.1]non-5-ylmethyl)-4-[(methylsulfonyl)amino]benzamide] |  |  |  | 8.5 |  |  |
| Cn1cc(C(=O)OCC23CCCN(CC2)C3)c2ccccc21 (stereo not drawn) [Example 12, 1-Methyl-1H-indole-3-carboxylic acid 1-azabicyclo[3.2.1]oct-5-ylmethyl ester] | -81 |  |  |  | 58 |  |
| COc1cc(N)c(Cl)cc1C(=O)OCC12CCCN(CC1)C2 (stereo not drawn) [Example 10, 4-Amino-5-chloro-2-methoxybenzoic acid 1-azabicyclo[3.2.1]oct-5-ylmethyl ester] | -82 | -82 | 47 |  |  |  |
| O=C(OCC12CCCN(CCC1)C2)c1c[nH]c2ccccc12 [Example 14, 1H-Indole-3-carboxylic acid 1-azabicyclo[3.3.1]non-5-ylmethyl ester] | -0.3 |  |  |  |  | 10 |
| Cn1cc(C(=O)NCC23CCCN(CCC2)C3)c2ccccc21 [Example 8] |  | -49 |  |  |  |  |
| Cn1nc(C(=O)OCC23CCCN(CC2)C3)c2ccccc21 (stereo not drawn) [Example 15, 1-Methyl-1H-indazole-3-carboxylic acid 1-azabicyclo[3.2.1]oct-5-ylmethyl ester] | -72 | -93 | 31 |  |  |  |
| COc1cc(N)c(Cl)cc1C(=O)NCC12CCCN(CCC1)C2 [Example 4, 4-Amino-N-(1-azabicyclo[3.3.1]non-5-ylmethyl)-5-chloro-2-methoxybenzamide] | -32 | -62 | 31 |  |  |  |
| CNc1cc(OC)c(C(=O)NCC23CCCN(CCC2)C3)cc1Cl [Example 5, N-(1-Azabicyclo[3.3.1]non-5-ylmethyl)-5-chloro-2-methoxy-4-(methylamino)benzamide] |  | -71 |  |  |  | 58 |
| CNc1cc(OC)c(C(=O)NCC23CCCN(CC2)C3)cc1Cl (stereo not drawn) [Example 2] |  | -63 |  |  |  | 62 |
| COc1cc(N)c(Cl)cc1C(=O)OCC12CCCN(CCC1)C2 [Example 13, 4-Amino-5-chloro-2-methoxybenzoic acid 1-azabicyclo[3.3.1]non-5-ylmethyl ester] | -23 | -50 |  |  |  | 41 |
